Species: Rattus norvegicus
Experiment: Open TG-GATES - Regimen: Daily Repeat
Assay type: toxicity, organism-based, Sprague-Dawley
Parameters: regimen Daily Repeat, gender Male, age 6 weeks
Conditions: in vivo, po, 8 mg/kg, route gavage, dose level Low; for APTT / Bas / Eos / Fbg / Hb / Ht / Lym / MCH / MCHC / MCV / Mono / Neu / PT / Plat / RBC / Ret / WBC: tissue Blood; for KIDNEY_L / KIDNEY_R / KIDNEY_TOTAL: tissue Kidney; for LIVER: tissue Liver; for A/G / ALP / ALT / AST / BUN / CRE / Ca / Cl / DBIL / GLC / IP / K / LDH / Na / PL / RALB / TBIL / TC / TG / TP / gamma-GTP: tissue Plasma

NC1=NC(=O)C(c2ccccc2)O1 (configuration not stated) [PEMOLINE]
TERMINAL_BW (72 h, time 3 day): 232.2 g | APTT (72 h, time 3 day): 17.3 s | Bas (72 h, time 3 day): 0% | Eos (72 h, time 3 day): 1.2% | Fbg (72 h, time 3 day): 275 mg/dL | Hb (72 h, time 3 day): 13.5 g/dL | Ht (72 h, time 3 day): 39.8% | Lym (72 h, time 3 day): 77% | MCH (72 h, time 3 day): 21.5 pg | MCHC (72 h, time 3 day): 33.8% | MCV (72 h, time 3 day): 63.5 fL | Mono (72 h, time 3 day): 3.6% | Neu (72 h, time 3 day): 18.2% | PT (72 h, time 3 day): 12.8 s | Plat (72 h, time 3 day): 112.1 x10_4/uL | RBC (72 h, time 3 day): 627.2 x10_4/ul | Ret (72 h, time 3 day): 7.3% | WBC (72 h, time 3 day): 82.8 x10_2/uL | KIDNEY_L (72 h, time 3 day): 1 g | KIDNEY_R (72 h, time 3 day): 1 g | KIDNEY_TOTAL (72 h, time 3 day): 1.9 g | LIVER (72 h, time 3 day): 11.1 g | A/G (72 h, time 3 day): 0.9 | ALP (72 h, time 3 day): 1587 IU/L | ALT (72 h, time 3 day): 45.6 IU/L | AST (72 h, time 3 day): 70.6 IU/L | BUN (72 h, time 3 day): 15 mg/dL | CRE (72 h, time 3 day): 0.2 mg/dL | Ca (72 h, time 3 day): 10.8 mg/dL | Cl (72 h, time 3 day): 105.6 meq/L | DBIL (72 h, time 3 day): 0.018 mg/dL | GLC (72 h, time 3 day): 182 mg/dL | IP (72 h, time 3 day): 8.2 mg/dL | K (72 h, time 3 day): 3.7 meq/L | LDH (72 h, time 3 day): 58.8 IU/L | Na (72 h, time 3 day): 143.6 meq/L | PL (72 h, time 3 day): 155.8 mg/dL | RALB (72 h, time 3 day): 2.7 g/dL | TBIL (72 h, time 3 day): 0.03 mg/dL | TC (72 h, time 3 day): 93 mg/dL | TG (72 h, time 3 day): 84.4 mg/dL | TP (72 h, time 3 day): 5.6 g/dL | gamma-GTP (72 h, time 3 day): 1 IU/L | TERMINAL_BW ([…], time 7 day): 267.2 g | TERMINAL_BW ([…], time 14 day): 337.4 g | TERMINAL_BW ([…], time 28 day): 432.5 g | APTT ([…], time 7 day): 17.3 s | Bas ([…], time 7 day): 0.2% | Eos ([…], time 7 day): 1% | Fbg ([…], time 7 day): 286.6 mg/dL | Hb ([…], time 7 day): 13.8 g/dL | Ht ([…], time 7 day): 40.5% | Lym ([…], time 7 day): 79.4% | MCH ([…], time 7 day): 21.6 pg | MCHC ([…], time 7 day): 34.1% | MCV ([…], time 7 day): 63.2 fL | Mono ([…], time 7 day): 3% | Neu ([…], time 7 day): 16% | PT ([…], time 7 day): 12.8 s | Plat ([…], time 7 day): 119.7 x10_4/uL | RBC ([…], time 7 day): 641.4 x10_4/ul | Ret ([…], time 7 day): 5.9% | WBC ([…], time 7 day): 119.6 x10_2/uL | APTT ([…], time 14 day): 17.3 s | Bas ([…], time 14 day): 0% | Eos ([…], time 14 day): 1% | Fbg ([…], time 14 day): 297 mg/dL | Hb ([…], time 14 day): 14.2 g/dL | Ht ([…], time 14 day): 40.8% | Lym ([…], time 14 day): 74.8% | MCH ([…], time 14 day): 21.4 pg | MCHC ([…], time 14 day): 34.8% | MCV ([…], time 14 day): 61.3 fL | Mono ([…], time 14 day): 2.4% | Neu ([…], time 14 day): 21.4% | PT ([…], time 14 day): 12.7 s | Plat ([…], time 14 day): 109.6 x10_4/uL | RBC ([…], time 14 day): 665.6 x10_4/ul | Ret ([…], time 14 day): 4.6% | WBC ([…], time 14 day): 83 x10_2/uL | APTT ([…], time 28 day): 17.5 s | Bas ([…], time 28 day): 0% | Eos ([…], time 28 day): 1% | Fbg ([…], time 28 day): 251.8 mg/dL | Hb ([…], time 28 day): 15.2 g/dL | Ht ([…], time 28 day): 42% | Lym ([…], time 28 day): 70% | MCH ([…], time 28 day): 20.3 pg | MCHC ([…], time 28 day): 36.2% | MCV ([…], time 28 day): 56.2 fL | Mono ([…], time 28 day): 3.4% | Neu ([…], time 28 day): 24.6% | PT ([…], time 28 day): 12.5 s | Plat ([…], time 28 day): 97.4 x10_4/uL | RBC ([…], time 28 day): 746.4 x10_4/ul | Ret ([…], time 28 day): 3.1% | WBC ([…], time 28 day): 106.7 x10_2/uL | KIDNEY_L ([…], time 7 day): 1.2 g | KIDNEY_R ([…], time 7 day): 1.1 g | KIDNEY_TOTAL ([…], time 7 day): 2.3 g | KIDNEY_L ([…], time 14 day): 1.3 g | KIDNEY_R ([…], time 14 day): 1.3 g | KIDNEY_TOTAL ([…], time 14 day): 2.6 g | KIDNEY_L ([…], time 28 day): 1.6 g | KIDNEY_R ([…], time 28 day): 1.6 g | KIDNEY_TOTAL ([…], time 28 day): 3.2 g | LIVER ([…], time 7 day): 12.4 g | LIVER ([…], time 14 day): 14.9 g | LIVER ([…], time 28 day): 17.3 g | A/G ([…], time 7 day): 0.9 | ALP ([…], time 7 day): 1719 IU/L | ALT ([…], time 7 day): 45 IU/L | AST ([…], time 7 day): 69.8 IU/L | BUN ([…], time 7 day): 15.8 mg/dL | CRE ([…], time 7 day): 0.2 mg/dL | Ca ([…], time 7 day): 10.5 mg/dL | Cl ([…], time 7 day): 103.8 meq/L | DBIL ([…], time 7 day): 0.014 mg/dL | GLC ([…], time 7 day): 180.8 mg/dL | IP ([…], time 7 day): 7.6 mg/dL | K ([…], time 7 day): 3.9 meq/L | LDH ([…], time 7 day): 62.6 IU/L | Na ([…], time 7 day): 142 meq/L | PL ([…], time 7 day): 152.6 mg/dL | RALB ([…], time 7 day): 2.6 g/dL | TBIL ([…], time 7 day): 0.026 mg/dL | TC ([…], time 7 day): 84.6 mg/dL | TG ([…], time 7 day): 94.4 mg/dL | TP ([…], time 7 day): 5.7 g/dL | gamma-GTP ([…], time 7 day): 1 IU/L | A/G ([…], time 14 day): 0.8 | ALP ([…], time 14 day): 1588.8 IU/L | ALT ([…], time 14 day): 47.4 IU/L | AST ([…], time 14 day): 70.4 IU/L | BUN ([…], time 14 day): 14.8 mg/dL | CRE ([…], time 14 day): 0.2 mg/dL | Ca ([…], time 14 day): 11.1 mg/dL | Cl ([…], time 14 day): 105.6 meq/L | DBIL ([…], time 14 day): 0.014 mg/dL | GLC ([…], time 14 day): 179.2 mg/dL | IP ([…], time 14 day): 8.2 mg/dL | K ([…], time 14 day): 3.7 meq/L | LDH ([…], time 14 day): 75 IU/L | Na ([…], time 14 day): 144.6 meq/L | PL ([…], time 14 day): 150.4 mg/dL | RALB ([…], time 14 day): 2.7 g/dL | TBIL ([…], time 14 day): 0.028 mg/dL | TC ([…], time 14 day): 80 mg/dL | TG ([…], time 14 day): 117 mg/dL | TP ([…], time 14 day): 5.8 g/dL | gamma-GTP ([…], time 14 day): 1 IU/L | A/G ([…], time 28 day): 0.8 | ALP ([…], time 28 day): 966.8 IU/L | ALT ([…], time 28 day): 41.4 IU/L | AST ([…], time 28 day): 63.2 IU/L | BUN ([…], time 28 day): 15.2 mg/dL | CRE ([…], time 28 day): 0.2 mg/dL | Ca ([…], time 28 day): 11.4 mg/dL | Cl ([…], time 28 day): 104.8 meq/L | DBIL ([…], time 28 day): 0.016 mg/dL | GLC ([…], time 28 day): 192.2 mg/dL | IP ([…], time 28 day): 7.5 mg/dL | K ([…], time 28 day): 3.9 meq/L | LDH ([…], time 28 day): 61.8 IU/L | Na ([…], time 28 day): 142.6 meq/L | PL ([…], time 28 day): 154.6 mg/dL | RALB ([…], time 28 day): 2.8 g/dL | TBIL ([…], time 28 day): 0.028 mg/dL | TC ([…], time 28 day): 84.4 mg/dL | TG ([…], time 28 day): 121.4 mg/dL | TP ([…], time 28 day): 6.1 g/dL | gamma-GTP ([…], time 28 day): 1 IU/L

Source: ChEMBL document CHEMBL3885861, “Open TG-GATES”
